Patent publication US20030144346A1, “Methods and compositions for regulation of 5-alpha reductase activity” (priority 1997, published 2003)
pIC50: −log10 of the molar value. Like-named read-outs stand apart in the source and are kept apart here. Blank lines part the entries; values can stand above or below the molecule they belong to.

Columns and labels:
[1] = target: T1, type 2 human 5α-reductase (HRED2) (Homo sapiens, UniProt P31213); assay: Cell free assay of 5α-reductase, microsomes of rat 1A cells expressing type 2 isoenzyme (HRED2); format: biochemical; set-up: expressed in transfected cells; host or cells: rat 1A cells infected with pMV7 retrovirus; microsomes;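 note: labeled testosterone and its product dihydrotestosterone measured in microsomal reaction extracts via thin layer chromatography plus radioanalytic scanning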
T1 sequence (P31213 1-254): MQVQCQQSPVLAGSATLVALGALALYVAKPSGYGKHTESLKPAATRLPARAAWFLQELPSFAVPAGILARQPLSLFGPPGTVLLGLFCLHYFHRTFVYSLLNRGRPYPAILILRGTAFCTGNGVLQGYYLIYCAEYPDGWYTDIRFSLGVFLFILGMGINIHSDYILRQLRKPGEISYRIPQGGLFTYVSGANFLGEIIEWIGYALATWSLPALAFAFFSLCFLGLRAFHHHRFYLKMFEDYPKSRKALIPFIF

[2] = target: T2, type 1 human 5α-reductase (HRED1) (Homo sapiens, UniProt P18405); assay: Cell free assay of 5α-reductase, microsomes of rat 1A cells expressing type 1 isoenzyme (HRED1); format: biochemical; set-up: expressed in transfected cells; host or cells: rat 1A cells infected with pMV7 retrovirus; microsomes;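 note: microsomes from rat 1A cells expressing human type 1 5α-reductase, conversion of radiolabeled testosterone to dihydrotestosterone quantified by thin layer chromatography with radioanalytic scanning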
T2 sequence (P18405 1-259): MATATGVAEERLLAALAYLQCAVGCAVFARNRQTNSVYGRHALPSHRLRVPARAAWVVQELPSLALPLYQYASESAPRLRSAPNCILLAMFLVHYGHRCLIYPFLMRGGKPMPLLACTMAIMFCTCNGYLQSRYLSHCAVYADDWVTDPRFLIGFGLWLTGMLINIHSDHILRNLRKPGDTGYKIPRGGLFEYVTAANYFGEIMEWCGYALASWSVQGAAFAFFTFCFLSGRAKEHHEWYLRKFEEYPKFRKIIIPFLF

[3] = target: T2, type 1 human 5α-reductase (HRED1); assay: Whole cell assay of 5α-reductase, type 1 isoenzyme; format: cell-based; set-up: expressed in transfected cells; host or cells: rat 1A cells infected with pMV7 retrovirus; conditions: whole cell assay;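 note: intact rat 1A cells engineered to express the human type 1 5α-reductase isozyme serve as the enzyme source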
[4] = cell-free assay, read-out: IC50, type 2 isoenzyme
[5] = cell-free assay, read-out: IC50, type 1 isoenzyme
[6] = 100 uM, cell free assay, Table 1, read-out: HRED2 % Inhibition @ 100 uM
[7] = cell free assay, Table 1 flavanoids, read-out: HRED2 IC50
[8] = 100 uM, cell free assay, Table 1, read-out: HRED1 % Inhibition @ 100 uM
[9] = cell free assay, Table 1 flavanoids, read-out: HRED1 IC50
[10] = cell free assay, Table 2 catechols, read-out: HRED2 IC50
[11] = cell free assay, Table 2 catechols, read-out: HRED1 IC50
[12] = 100 μM, cell free assay, Table 5
[13] = cell free assay, Table 5 epigallocatechin derivatives, read-out: HRED2 IC50
[14] = cell free assay, Table 5 epigallocatechin derivatives, read-out: HRED1 IC50
[15] = 100 uM, cell free assay, Table 2
[16] = 100 μM, cell free assay, Table 4, read-out: HRED2 % Inhibition @ 100 μM
[17] = cell free assay, Table 4 quinones, read-out: HRED2 IC50
[18] = 100 μM, cell free assay, Table 4, read-out: HRED1 % Inhibition @ 100 μM
[19] = cell free assay, Table 4 quinones, read-out: HRED1 IC50
[20] = 100 μM, cell free assay, Table 4

SMILES: COc1cc(/C=C/C(=O)O)ccc1O [Ferulic Acid]
inhibition at 100 µM ([1]; 100 uM, cell free assay, Table 3, read-out: HRED2 % Inhibition @ 100 uM): 18%
pIC50 ([1]; cell free assay, Table 3 curcumin and related compounds, read-out: HRED2 IC50): < 4.00
pIC50 [1, 4]: < 4.00
inhibition at 100 µM ([2]; 100 uM, cell free assay, Table 3, read-out: HRED1 % Inhibition @ 100 uM): 0%
pIC50 ([2]; cell free assay, Table 3 curcumin and related compounds, read-out: HRED1 IC50): < 4.00
pIC50 [2, 5]: < 4.00

SMILES: COc1cc2ccc(=O)oc2c(O)c1O [Fraxetin]
pIC50 [1, 10]: < 4.00
pIC50 [2, 11]: < 4.00

SMILES: Oc1cc2c(cc1O)[C@@H]1c3ccc(O)c(O)c3OC[C@]1(O)C2 [Hematoxylin]
inhibition at 100 µM ([1]; 100 uM, cell free assay, Table 2, read-out: HRED2 % Inhibition @ 100 uM): 38%
pIC50 [1, 10]: < 4.00
inhibition at 100 µM ([2]; 100 uM, cell free assay, Table 2, read-out: HRED1 % Inhibition @ 100 uM): 59%
pIC50 [2, 11]: 4.08

SMILES: NCCc1cc(O)c(O)c(O)c1 [Hydroxydopamine]
HRED2 % Inhibition @ 100 uM [1, 15]: 41%

SMILES: CC(C)=CCC1=C(O)C(=O)c2ccccc2C1=O [Lapachol]
inhibition at 100 µM [1, 16]: 9%
pIC50 [1, 17]: < 4.00
inhibition at 100 µM [2, 18]: 30%
pIC50 [2, 19]: < 4.00

SMILES: CC(Cc1ccc(O)c(O)c1)C(C)Cc1ccc(O)c(O)c1 (stereo not drawn) [Nordihydrogaiaretic Acid, Nordihydroguaiaretic acid]
inhibitory activity in the whole cell assay, type 1 isoenzyme, in words [3]: active
HRED2 % Inhibition @ 100 uM [1, 15]: 80%

SMILES: CC(C)(C)c1cc(O)ccc1O [T-butylhydroxyquinone]
HRED2 % Inhibition @ 100 μM [1, 20]: 4%
pIC50 [1, 17]: < 4.00
HRED1 % Inhibition @ 100 μM [2, 20]: 19%
pIC50 [2, 19]: < 4.00

Continued, values first:

inhibition at 100 µM [1, 6]: -52%
pIC50 [1, 7]: < 4.00
inhibition at 100 µM [2, 8]: 20%
pIC50 [2, 9]: < 4.00
SMILES: O=c1cc(-c2ccccc2)oc2ccccc12 [Flavone]

HRED2 % Inhibition @ 100 μM [1, 12]: 24%
pIC50 [1, 13]: < 4.00
HRED1 % Inhibition @ 100 μM [2, 12]: 85%
pIC50 [2, 14]: 4.32
SMILES: O=C(OC1Cc2c(O)cc(O)cc2OC1c1cc(O)c(O)c(O)c1)c1ccccc1 (stereo not drawn) [HZIV 74]

HRED2 % Inhibition @ 100 μM [1, 12]: 0%
pIC50 [1, 13]: < 4.00
HRED1 % Inhibition @ 100 μM [2, 12]: 17%
pIC50 [2, 14]: < 4.00
SMILES: O=C(O)OC1Cc2c(O)cc(O)cc2OC1c1cc(O)c(O)c(O)c1 (stereo not drawn) [HZIV 109]

HRED2 % Inhibition @ 100 μM [1, 12]: 94%
pIC50 [1, 13]: 4.17
HRED1 % Inhibition @ 100 μM [2, 12]: 99%
pIC50 [2, 14]: 4.70
SMILES: O=C(C=Cc1cc(O)c(O)c(O)c1)OC1Cc2c(O)cc(O)cc2OC1c1cc(O)c(O)c(O)c1 (stereo not drawn) [HZIV 134]

HRED2 % Inhibition @ 100 uM [1, 15]: 6%
pIC50 [1, 10]: < 4.00
HRED1 % Inhibition @ 100 uM [2, 15]: 10%
pIC50 [2, 11]: < 4.00
SMILES: O=C(NCCc1cc(O)c(O)c(O)c1)c1cc(O)c(O)c(O)c1 [HZIV 275]

pIC50 [1, 7]: < 4.00
pIC50 [2, 9]: < 4.00
SMILES: O=c1c(O)c(-c2ccc(O)cc2O)oc2cc(O)cc(O)c12 [Morin]

pIC50 [1, 10]: < 4.00
pIC50 [2, 11]: 4.52
SMILES: O=c1c(O)cccc2cc(O)c(O)c(O)c12 [Purpurogallin]

pIC50 [1, 10]: < 4.00
pIC50 [2, 11]: 4.82
SMILES: O=c1ccc2c(-c3ccccc3S(=O)(=O)O)c3ccc(O)c(O)c3oc-2c1O [Pyrogallol Red]

inhibition at 100 µM [1, 16]: 7%
pIC50 [1, 17]: < 4.00
inhibition at 100 µM [2, 18]: 26%
pIC50 [2, 19]: < 4.00
SMILES: O=C1c2ccccc2C(=O)c2c(O)ccc(O)c21 [Quinizarin]

pIC50 [1, 7]: < 4.00
pIC50 ([1]; read-out: IC50, type 2 isoenzyme): < 4.00
pIC50 [2, 9]: < 4.00
pIC50 [2, 5]: < 4.00
SMILES: C[C@@H]1O[C@@H](OC[C@H]2O[C@@H](Oc3c(-c4ccc(O)c(O)c4)oc4cc(O)cc(O)c4c3=O)[C@H](O)[C@@H](O)[C@@H]2O)[C@H](O)[C@H](O)[C@H]1O [Rutin]

inhibition at 100 µM [1, 6]: 5%
pIC50 [1, 7]: < 4.00
pIC50 [1, 4]: < 4.00
inhibition at 100 µM [2, 8]: 5%
pIC50 [2, 9]: < 4.00
pIC50 [2, 5]: < 4.00
SMILES: O=C1c2c(O)cc(O)cc2O[C@H](c2ccc(O)c(O)c2)[C@H]1O [Taxifolin]
